Experimental data: patent publication US10098975B2, “Labeled pkg-1-alpha-binding compounds and their use in imaging and quantifying pain” (THE TRUSTEES OF COLUMBIA UNIVERSITY IN THE CITY OF NEW YORK, priority 2013, dated 2018)

What was measured:
[1] = Distribution to dorsal root ganglion and CNS after injection; format: in vivo
[2] = Clearance from circulation after intravenous injection; format: in vivo; details: following intravenous injection
Protein Kinase A (PKA) = Protein Kinase A (PKA) (Homo sapiens, UniProt P17612); experiment: IC50 of NOP46 for Protein Kinase A; format: biochemical
models of chronic pain = experiment: Rat models of chronic pain (mechanical allodynia, thermal hyperalgesia); format: in vivo; details: injected into rats, FIG. 6
From the text: (§1) Evaluation of neuroma pain was made possible with the advent of a novel protocol in rats whereby the end of a transected tibial nerve is transposed and then anchored just beneath the skin of the ankle. This allows the allodynia from the neuroma to be evaluated by systematically applying pressure to the overlying skin and observing whether the rat raises the leg.

[3] = Tissue distribution studies; format: in vivo; details: initial levels
PKG = target: T1, PKG (Homo sapiens, UniProt Q13976); experiment: IC50 of NOP46 for PKG; format: biochemical
T1 sequence (Q13976 1-671): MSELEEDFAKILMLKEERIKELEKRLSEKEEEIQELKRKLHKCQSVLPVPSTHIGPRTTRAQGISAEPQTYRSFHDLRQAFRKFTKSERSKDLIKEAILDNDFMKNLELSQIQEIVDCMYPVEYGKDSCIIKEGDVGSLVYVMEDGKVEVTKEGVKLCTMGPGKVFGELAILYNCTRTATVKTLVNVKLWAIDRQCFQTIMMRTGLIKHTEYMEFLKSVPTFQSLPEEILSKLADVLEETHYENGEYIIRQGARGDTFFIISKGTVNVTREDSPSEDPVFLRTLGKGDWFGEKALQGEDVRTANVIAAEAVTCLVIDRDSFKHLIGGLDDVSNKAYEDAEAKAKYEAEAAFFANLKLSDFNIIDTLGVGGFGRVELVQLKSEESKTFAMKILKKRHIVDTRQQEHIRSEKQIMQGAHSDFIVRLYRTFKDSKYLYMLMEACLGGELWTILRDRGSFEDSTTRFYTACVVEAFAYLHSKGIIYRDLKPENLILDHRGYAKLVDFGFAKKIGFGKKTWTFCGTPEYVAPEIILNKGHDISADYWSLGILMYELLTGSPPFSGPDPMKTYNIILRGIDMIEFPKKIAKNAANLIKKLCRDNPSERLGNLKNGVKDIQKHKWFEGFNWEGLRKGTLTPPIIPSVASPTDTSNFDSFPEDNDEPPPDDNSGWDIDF

[4] = Microsome preparations (metabolism); format: in vitro ADME
PKG1alpha(h) = target: T2, PKG1alpha(h) (Homo sapiens, UniProt Q13976); experiment: Kinase panel (287 kinases, optimal ATP): PKG1alpha(h); format: biochemical; details: assayed in 287 kinases at their optimal ATP concentrations
T2 sequence (Q13976 1-671): T1 sequence (Q13976 1-671)
Method: Its kinase inhibiting activity was assayed in 287 kinases at their optimal ATP concentrations. Members of all the kinome families were represented.

neuroma pain = experiment: Tibial neuroma transposition model of neuroma pain in rats; format: in vivo; details: transected tibial nerve transposed beneath ankle skin
From the text: as §1

[5] = Stability in blood in vitro; format: in vitro ADME

Which results are given for `CCCOc1ccc(OC)c(F)c1C(=O)c1ccc(C(=O)N[C@@H]2CNC[C@H]2NC(=O)c2ccc3[nH]ncc3c2)cc1` [NOP46, N-((3R,4R)-4-(4-(2-fluoro-3-methoxy-6-propoxybenzoyl)benzamido)pyrrolidin-3-yl)-1H-indazole-5-carboxamide]?
Entry into the central nervous system [1]: does not enter the central nervous system; Time to reach the DRG [1]: ≤ 30 min; Stability within the ganglion ([1]; dorsal root ganglion): at least 24 h; Clearance from the circulation [2]: rapidly cleared from the circulation; IC50 (Protein Kinase A (PKA)): 2000 nM; Mechanical allodynia (models of chronic pain): alleviated mechanical allodynia; Thermal hyperalgesia (models of chronic pain): alleviated; Tissue level in the liver [3]: high initial levels of NOP46 in the liver; IC50 (PKG): 7.5 nM; Kinetic analysis: mode of inhibition (PKG; with respect to the ATP site): non-competitive inhibitor of the ATP site; Metabolic degradation pathway [4]: degraded by carbonyl reduction and depropylation; Selectivity of kinase inhibition (PKG1alpha(h)): selectively inhibits activated PKG1alpha; Neuroma pain (neuroma pain): alleviates neuroma pain; Stability in blood [5]: stable in blood in vitro
